This is an account of results in patent US8506947B2 (priority 1999, dated 2013).

Read-outs that look alike come from different tables or passages of the source.

The subject of series [1] is Murine colon adenocarcinoma cells (MC38 cells). It is filed as cell-based.
For series [2], the system named is hepatic metastases. Particulars: cited from earlier work.
Series [3] deals with transduced sarcoma cell line. The settings on record: cited from earlier work.
The subject of series [4] is sarcoma cells. The settings on record: gpt gene retrovirally transduced; cited from earlier work.
Series [5] relates to glioma cells. Particulars: cited from earlier work.
For series [6], the system named is melanoma cells. The settings on record: after antibody-β-lactamase conjugate; cited from earlier work.
The test system of series [7] is intracerebral gliomas. Particulars: adenovirus carrying HSV-TK intratumorally, IP GCV twice daily for 6 days; cited from earlier work.
In series [8] the test system is subcutaneous tumors (glioma-breast cancer) retrovirally transduced with CYP2B1. The settings on record: single IP injection of cyclophosphamide; cited from earlier work.

As to `Nc1nc(=O)[nH]cc1F` [5-FC, 5-fluorocytosine], in series [1], the “cells killed as a result of the 5-FC exposure” value is recorded as roughly 100% and the “effect of the 5-FC exposure on cells” value was “not affected”.
Regarding `Cc1ncnc2c1ncn2[C@H]1C[C@H](O)[C@@H](CO)O1` [6-MPDR, 6-methylpurine deoxyriboside], the cure rate is on record as 50% in series [2] (every other daily injections of 6-MPDR) and 30% in series [2] (weekly injections of 6-MPDR).
As to `O=c1[nH]c(=S)c2[nH]cnc2[nH]1` [6-TX, 6-thioxanthine], the “treatment mortality due to toxicity of the converted prodrug” value in series [3] (5 days of treatment with 6-TX) was 10%. Besides, the “complete regression, share of the animals” value in series [3] (after 5 days of treatment with 6-TX) was 95%. For the same compound, the increased sensitivity in series [4] is reported as 86 fold. Moreover, the LD50 in series [5] (glioma cells transduced with gpt) is 2.5 µmol/L. Moreover, the “sensitivity of untransfected cells” value in series [5] (untransfected cells at 50 umol/L) was “minimally sensitive”.
With `COc1cccc2c1C(=O)c1c(O)c3c(c(O)c1C2=O)C[C@@](O)(C(=O)CO)C[C@@H]3O[C@H]1C[C@H](NC(=O)OCC2=C(C(=O)O)N3C(=O)[C@@H](NC(=O)Cc4ccccc4)[C@H]3SC2)[C@H](O)[C@H](C)O1` [C-Dox, cephalosporin-doxorubicin], in series [6], the “increase in the sensitivity of cells to the prodrugs” value was 4 fold.
For the compound `Nc1nc(O)c2ncn(COC(CO)CO)c2n1` [GCV, Gancyclovir], in series [7], the complete regressions is recorded as 2 and the “decrease in tumor size compared to controls” value is 23 fold.
On to `O=P1(N(CCCl)CCCl)NCCCO1` (stereo not shown) [cyclophosphamide], for which, in series [8], the “complete inhibition of tumors, share of animals” value is 95%.
